In article PMC5654414, “In vitro and in vivo comparative and competitive activity-based protein profiling of GH29 α-L-fucosidases” (Chemical Science, 2015):

Experiments:
[1] = test system: retaining α-L-fucosidases; experiment: In vivo labeling of α-L-fucosidases in mice; design: species or system C57Bl/6J mice
Method: (§1) The ability of 1 to label α-L-fucosidase in living mice was investigated next. Four wild-type C57Bl/6J male mice were injected with 100 μL vehicle (PBS) or PBS containing 10, 100 or 1000 pmol 1. After two hours, the mice were anesthetized, perfused with PBS and then brain, spleen, liver and kidney tissues were isolated. Tissue homogenates were prepared and each lysate was labeled prior to gel electrophoresis with red-fluorescent cyclophellitol β-aziridine JJB75, which labels β-exoglucosidases as loading control (ESI Fig. S6 ^†). Furthermore, tissue homogenates of vehicle-treated animals were labeled with excess 1 to visualize the maximal α-L-fucosidase labeling achievable in each tissue.
(§2) The appropriate ethics committee for animal experiments approved all experimental procedures. Wild-type C57Bl/6J male mice were obtained from Harlan and fed a commercially available lab diet (RMH-B; Hope Farms). Four C57BL/6J mice were injected intraperitoneally with 100 μL sterile PBS (vehicle) or PBS containing 10, 100, or 1000 pmol of ABP 1 (about 0.2 μg kg^–1, 2 μg kg^–1, and 20 μg kg^–1, respectively). At 2 h post-administration, urine was collected and the mice were anesthetized with FFM mix (25/25/50 fentanylcitrate/midazalam/H2O), blood was collected and perfused with PBS at 3.0 mL min^–1. Then urine and organs were collected and directly frozen in liquid nitrogen. Homogenates were made in 25 mM potassium phosphate buffer, pH 6.5, supplemented with 0.1% (v/v) Triton X-100 and protease inhibitor cocktail (Roche). After determination of protein concentration (BCA kit, Pierce), 50 μg total protein was incubated with 100 nM red fluorescent JJB75 and analyzed by SDS-PAGE. As controls, matching tissue homogenates of vehicle-treated animals were concomitantly labeled with 1 μM ABP 1 and 100 nM JJB75 prior to SDS-PAGE.

[2] = target: T1, retaining α-L-fucosidases (Mus musculus, UniProt Q99LJ1); experiment: In vivo labeling of α-L-fucosidases in mice; design: species or system C57Bl/6J mice; conditions: any of the administered doses (10, 100, 1000 pmol), 2 h
T1 construct: from tissue; host or cells: C57Bl/6J mouse spleen, liver, kidney, brain (in vivo)
T1 sequence (Q99LJ1 18-452): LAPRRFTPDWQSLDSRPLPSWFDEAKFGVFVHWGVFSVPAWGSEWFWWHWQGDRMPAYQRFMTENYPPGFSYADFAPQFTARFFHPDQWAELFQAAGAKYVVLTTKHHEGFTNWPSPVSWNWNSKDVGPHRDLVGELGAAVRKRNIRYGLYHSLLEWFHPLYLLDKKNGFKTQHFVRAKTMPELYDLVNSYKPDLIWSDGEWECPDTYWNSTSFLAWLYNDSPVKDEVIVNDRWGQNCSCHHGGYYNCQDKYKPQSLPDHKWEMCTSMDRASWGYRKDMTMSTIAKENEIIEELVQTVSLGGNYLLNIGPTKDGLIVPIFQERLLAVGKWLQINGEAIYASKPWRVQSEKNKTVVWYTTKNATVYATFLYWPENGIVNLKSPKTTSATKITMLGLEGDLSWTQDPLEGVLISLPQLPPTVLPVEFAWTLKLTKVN
Method: as §1, §2

[3] = target: T2, FUCA1 (Homo sapiens, UniProt P04066); experiment: ABP pulldown from Gaucher spleen lysate and LC-MS/MS identification; type: binding; design: lysates of spleens from a healthy human individual and a patient suffering from Gaucher disease; from tissue; host or cells: human spleen (normal subject and type 1 Gaucher patient); conditions: 10 μM pre-incubation followed by 10 μM ABP 3
T2 sequence (P04066 32-466): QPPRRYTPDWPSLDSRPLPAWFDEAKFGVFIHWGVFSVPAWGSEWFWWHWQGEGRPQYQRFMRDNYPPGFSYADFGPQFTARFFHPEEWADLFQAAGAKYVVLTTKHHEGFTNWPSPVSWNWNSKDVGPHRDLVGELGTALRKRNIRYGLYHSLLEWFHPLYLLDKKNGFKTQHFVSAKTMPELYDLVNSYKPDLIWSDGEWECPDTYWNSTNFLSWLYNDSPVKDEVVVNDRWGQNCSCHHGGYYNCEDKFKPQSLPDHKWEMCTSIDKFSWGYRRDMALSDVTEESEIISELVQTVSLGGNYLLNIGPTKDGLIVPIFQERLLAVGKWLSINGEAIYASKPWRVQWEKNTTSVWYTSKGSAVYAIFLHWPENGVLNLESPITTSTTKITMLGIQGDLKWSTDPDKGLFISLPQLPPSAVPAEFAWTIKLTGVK
Method: To further determine the specificity of the developed ABPs, we have analyzed the ABP-labeled proteins in a complex tissue homogenate. For this purpose, we incubated Gaucher spleen lysate with biotinylated ABP 3 or with DMSO only (control) or competitive ABP 3-labeling by first incubating with fluorescent ABP 1. Glycosylated proteins were then enriched via ConA, followed by affinity purification with streptavidin coated paramagnetic beads. The identity of biotinylated and ABP 3-labeled proteins was determined by on-bead digestion with trypsin, peptide analysis by LC-MS/MS and matching against the human UniProt database, using the Mascot search engine as previously reported.[14] […]
Gaucher spleen lysate (1 g) was cut with a sterile scalpel, mixed with 4 mL 25 mM potassium phosphate buffer (pH 6.5, supplemented with 0.1% (v/v) Triton X-100 and protease inhibitor cocktail (Roche)) and sonicated three times for 10 seconds at 100% strength and kept on ice. […] Lysate was then centrifuged for 10 min at 10 000 g, supernatant collected carefully, protein concentration determined and […] total protein was then incubated with either 0.1% (v/v) DMSO, ABP 1 or ABP 3, or firstly with 10 μM ABP 1 followed by 10 μM of ABP 3, each step taking 30 min at 37 °C, in a total volume of 1 mL McIlvaine buffer, pH 4.5. […]

- brain penetration ([1]; concluded from absent brain labeling): does not penetrate the brain
- blocking of ABP 3 binding by pre-incubation [3]: completely blocked
SMILES: CC1=CC(C)=[N+]2C1=C(CCCCc1cn(CCCCCCCC(=O)N3[C@@H]4[C@@H](C)[C@@H](O)[C@@H](O)[C@H](O)[C@@H]43)nn1)c1c(C)cc(C)n1[B-]2(F)F [compound 1]
- in vivo labeling of α-fucosidase in spleen, liver and kidney ([1]; injection of 1000 pmol, 2 h): substantial labeling
- in vivo labeling of retaining α-L-fucosidases in spleen, liver and kidney ([1]; intraperitoneal, 10, 100 or 1000 pmol, 2 h): dose-dependent labeling
- in vivo brain FUCA1 labeling [2]: no in vivo brain FUCA1 labeling was observed
